Where two headings read alike, the source gives them in different places.
Experiment: CelltiterGlo viability cell assay
Assay type: cell-based
Settings: human; for viability at 3 day, 9.5 µM / viability at 3 day, 30 µM / viability at 6 day, 0.01 µM / viability at 6 day, 0.03 µM / viability at 6 day, 0.1 µM: SKMM2 cells (multiple myeloma line); for viability at 3 day, 0.01 µM / viability at 3 day, 0.03 µM: SKMM2 cells
Outline: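 CelltiterGlo luminescence, day 3 and day 6 readouts; compound 0.01–30 μM; data normalized to DMSO; n=3 biological replicates ± SEM.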

[1] = RPMI-8226 multiple myeloma cells, 8226, 3 day, read-out: viability Replicate 1
[2] = RPMI-8226 multiple myeloma cells, 8226, 3 day, read-out: viability Replicate 2
[3] = RPMI-8226 multiple myeloma cells, 8226, 3 day, read-out: viability Replicate 3
[4] = RPMI-8226 multiple myeloma cells, 8226, 3 day, read-out: viability Average
[5] = RPMI-8226 multiple myeloma cells, 8226, 6 day, read-out: viability Average
[6] = RPMI-8226 multiple myeloma cells, 8226, 6 day, read-out: viability Replicate 1
[7] = RPMI-8226 multiple myeloma cells, 8226, 6 day, read-out: viability Replicate 2
[8] = RPMI-8226 multiple myeloma cells, 8226, 6 day, read-out: viability Replicate 3
[9] = SKMM2, 3 day, read-out: viability Average
[10] = SKMM2, 3 day, read-out: viability Replicate 1
[11] = SKMM2, 3 day, read-out: viability Replicate 2
[12] = SKMM2, 3 day, read-out: viability Replicate 3
[13] = SKMM2, 6 day, read-out: viability Average
[14] = SKMM2, 6 day, read-out: viability Replicate 1
[15] = SKMM2, 6 day, read-out: viability Replicate 2
[16] = SKMM2, 6 day, read-out: viability Replicate 3
[17] = SKMM2 multiple myeloma cells, SKMM2, 3 day, read-out: viability Average
[18] = SKMM2 multiple myeloma cells, SKMM2, 3 day, read-out: viability Replicate 1
[19] = SKMM2 multiple myeloma cells, SKMM2, 3 day, read-out: viability Replicate 2
[20] = SKMM2 multiple myeloma cells, SKMM2, 3 day, read-out: viability Replicate 3
[21] = SKMM2 multiple myeloma cells, SKMM2, 6 day, read-out: viability Average
[22] = SKMM2 multiple myeloma cells, SKMM2, 6 day, read-out: viability Replicate 1
[23] = SKMM2 multiple myeloma cells, SKMM2, 6 day, read-out: viability Replicate 2
[24] = SKMM2 multiple myeloma cells, SKMM2, 6 day, read-out: viability Replicate 3

Structure (SMILES): COc1cc(OC)cc(-c2noc(N3CCN(C)C4(CCN(c5ccnc(C)c5)CC4)C3)n2)c1 [MRK-740]
- viability at 3 day, 0.3 µM [1]: 101%
- viability at 3 day, 0.3 µM [2]: 101%
- viability at 3 day, 0.3 µM [3]: 104%
- viability at 3 day, 1 µM [4]: 104%
- viability at 3 day, 1 µM [1]: 104%
- viability at 3 day, 1 µM [2]: 102%
- viability at 3 day, 1 µM [3]: 105%
- viability at 3 day, 3 µM [4]: 106%
- viability at 3 day, 3 µM [1]: 106%
- viability at 3 day, 3 µM [2]: 105%
- viability at 3 day, 3 µM [3]: 107%
- viability at 6 day, 0.3 µM [5]: 98.9%
- viability at 6 day, 0.3 µM [6]: 97.6%
- viability at 6 day, 0.3 µM [7]: 98.6%
- viability at 6 day, 0.3 µM [8]: 101%
- viability at 6 day, 1 µM [5]: 97.3%
- viability at 6 day, 1 µM [6]: 95%
- viability at 6 day, 1 µM [7]: 99.7%
- viability at 6 day, 1 µM [8]: 97.2%
- viability at 6 day, 3 µM [5]: 92.6%
- viability at 6 day, 3 µM [6]: 89.2%
- viability at 6 day, 3 µM [7]: 96.8%
- viability at 6 day, 3 µM [8]: 91.7%
- viability at 6 day, 9.5 µM [5]: 82.7%
- viability at 6 day, 9.5 µM [6]: 77%
- viability at 6 day, 9.5 µM [7]: 85.6%
- viability at 6 day, 9.5 µM [8]: 85.5%
- viability at 6 day, 30 µM [5]: 70.7%
- viability at 6 day, 30 µM [6]: 82%
- viability at 6 day, 30 µM [7]: 56.4%
- viability at 6 day, 30 µM [8]: 73.5%
- viability at 3 day, 9.5 µM [9]: 93.2%
- viability at 3 day, 9.5 µM [10]: 95.7%
- viability at 3 day, 9.5 µM [11]: 89.2%
- viability at 3 day, 9.5 µM [12]: 94.7%
- viability at 3 day, 30 µM [9]: 67%
- viability at 3 day, 30 µM [10]: 70.4%
- viability at 3 day, 30 µM [11]: 59%
- viability at 3 day, 30 µM [12]: 71.7%
- viability at 6 day, 0.01 µM [13]: 99.7%
- viability at 6 day, 0.01 µM [14]: 96.8%
- viability at 6 day, 0.01 µM [15]: 103%
- viability at 6 day, 0.01 µM [16]: 99.2%
- viability at 6 day, 0.03 µM [13]: 98.1%
- viability at 6 day, 0.03 µM [14]: 90.3%
- viability at 6 day, 0.03 µM [15]: 105%
- viability at 6 day, 0.03 µM [16]: 98.8%
- viability at 6 day, 0.1 µM [13]: 96.7%
- viability at 6 day, 0.1 µM [14]: 86.5%
- viability at 6 day, 0.1 µM [15]: 107%
- viability at 6 day, 0.1 µM [16]: 96.8%
- viability at 3 day, 0.01 µM [9]: 101%
- viability at 3 day, 0.01 µM [10]: 101%
- viability at 3 day, 0.01 µM [11]: 99.6%
- viability at 3 day, 0.01 µM [12]: 102%
- viability at 3 day, 0.03 µM [9]: 101%
- viability at 3 day, 0.03 µM [10]: 99.8%
- viability at 3 day, 0.03 µM [11]: 99.2%
- viability at 3 day, 0.03 µM [12]: 103%
- viability at 3 day, 0.1 µM [17]: 103%
- viability at 3 day, 0.1 µM [18]: 102%
- viability at 3 day, 0.1 µM [19]: 100%
- viability at 3 day, 0.1 µM [20]: 105%
- viability at 3 day, 0.3 µM [17]: 101%
- viability at 3 day, 0.3 µM [18]: 101%
- viability at 3 day, 0.3 µM [19]: 98.7%
- viability at 3 day, 0.3 µM [20]: 103%
- viability at 3 day, 1 µM [17]: 101%
- viability at 3 day, 1 µM [18]: 99.9%
- viability at 3 day, 1 µM [19]: 99.6%
- viability at 3 day, 1 µM [20]: 104%
- viability at 3 day, 3 µM [17]: 99.8%
- viability at 3 day, 3 µM [18]: 97.6%
- viability at 3 day, 3 µM [19]: 98.3%
- viability at 3 day, 3 µM [20]: 104%
- viability at 6 day, 0.3 µM [21]: 98.1%
- viability at 6 day, 0.3 µM [22]: 88.2%
- viability at 6 day, 0.3 µM [23]: 106%
- viability at 6 day, 0.3 µM [24]: 100%
- viability at 6 day, 1 µM [21]: 96.5%
- viability at 6 day, 1 µM [22]: 88%
- viability at 6 day, 1 µM [23]: 105%
- viability at 6 day, 1 µM [24]: 96.3%
- viability at 6 day, 3 µM [21]: 96.8%
- viability at 6 day, 3 µM [22]: 85.2%
- viability at 6 day, 3 µM [23]: 105%
- viability at 6 day, 3 µM [24]: 100%
- viability at 6 day, 9.5 µM [21]: 94.5%
- viability at 6 day, 9.5 µM [22]: 83.8%
- viability at 6 day, 9.5 µM [23]: 102%
- viability at 6 day, 9.5 µM [24]: 97.7%
- viability at 6 day, 30 µM [21]: 71.5%
- viability at 6 day, 30 µM [22]: 71.4%
- viability at 6 day, 30 µM [23]: 66%
- viability at 6 day, 30 µM [24]: 77.2%
